# Source: patent publication US12312333B2, “SK channel positive allosteric modulators” (Chapman University, priority 2021, dated 2025)
# Columns and labels:
# rat KCa2.2a = biological target: T1, rat KCa2.2a (UniProt P0DP23+P70604); assay: Inside-out patch-clamp potentiation of KCa2.2a channels expressed in HEK293 cells; type: cell-based; settings: for EC50: inside-out patch, HEK293, 0.15 μM Ca2+, current at −90 mV, read-out: EC50 (mean ± SEM, μM) on potentiating KCa2.2a channels; for fold higher potency on KCa2.2a channels compared to CyPPA: ratio of EC50 values vs CyPPA; for KCa2.2a/KCa2.3 subtype selectivity: vs KCa2.1 and KCa3.1
# T1 construct: expressed in transfected cells; host or cells: HEK293
# Protocol: The impact of adding one substituent group at C4 of the cyclohexane moiety of CyPPA with either electron donating (OH (2a), NH2 (2b), CH2OH (2c), and OCH3 (2d)) or electron-withdrawing groups (F (2e) and NO2 (2f)) was explored. The potency of the newly synthesized compounds compared to the template CyPPA was measured via inside-out patch clamp electrophysiology recordings with KCa2.2a channels heterologously expressed in HEK293 cells (FIG. 1A). […] The responses induced by 10 μM Ca^2+ are considered the maximal currents of the KCa2.2a channels. To evaluate the efficacy (Emax) of compounds on KCa2.2a channels, the current amplitudes at −90 mV in response to the maximal concentration of compounds were normalized to that obtained at 10 μM Ca^2+ (I/Imax (%), FIG. 1C).
# (§1) The effect of newly synthesized compounds on the KCa2.x/KCa3.1 channels was investigated as previously described (Nam, Y. W.; et al, Acta Physiol (Oxf) 2020, e13552; Nam, Y. W.; et al. Scientific reports 2018, 8 (1), 10749). Briefly, the rat KCa2.2a, human KCa2.1, human KCa2.3 or human KCa3.1 channels cDNA constructs were either generated in-house or through molecular cloning services (Genscript). The channel cDNAs, along with CaM and GFP, at a ratio of 7:4:2 (ORF ratios), were transfected into HEK293 cells by the calcium-phosphate method. KCa currents were recorded 1-2 days after transfection, with an Axon200B amplifier (Molecular Devices) at room temperature. The resistance of the patch electrodes ranged from 3-5 MΩ. The pipette solution contained (in mM): 140 KCl, 10 Hepes (pH 7.4), 1 MgSO4. The bath solution containing (in mM): 140 KCl, 10 Hepes (pH 7.2), 1 EGTA, 0.1 Dibromo-BAPTA, and 1 HEDTA was mixed with Ca^2+ to obtain the desired free Ca^2+ concentrations, calculated using the software by Chris Patton of Stanford University (https://somapp.ucdmc.ucdavis.edu/pharmacology/bers/maxchelator/webmaxc/webmaxcS.htm). The Ca^2+ concentrations were verified using a Ca^2+ calibration buffer kit (Thermo Fisher Scientific). Briefly, a standard curve was generated using the Ca^2+ buffers from the kit and a fluorescence Ca^2+ indicator. Then, the Ca^2+ concentrations of the bath solution were determined through interpolation on the standard curve.
# High resistance seals (>1 GΩ) were formed before inside-out patches were obtained. The seal resistance of inside-out patches was >1 GΩ, when the intracellular face was initially exposed to a zero-Ca^2+ bath solution. Currents were recorded by repetitive 1-s-voltage ramps from −100 mV to +100 mV from a holding potential of 0 mV. The currents were filtered at 2 kHz and digitized at a sampling frequency of 10 kHz. At the end of experiment, the integrity of the patch was examined by switching the bath solution back to the zero-Ca^2+ buffer. Data from patches, which maintained the seal resistance (>1 GΩ) after solution changes, were used for further analysis.
# (§2) To measure the effect of CyPPA (Alomone Labs) and newly synthesized compounds, the intracellular face was exposed to bath solutions with 0.15 μM Ca^2+. One minute after switching of bath solutions, ten sweeps with a 1-s interval were recorded at a series of concentrations of compound in the presence of 0.15 μM Ca^2+. The maximal KCa2.x/KCa3.1 current in response to 10 μM Ca^2+ was then recorded.
# Patch-clamp recordings were analyzed using Clampfit 10.5 (Molecular Devices LLC) and concentration-response curves were analyzed in GraphPad Prism 9.0.2 (GraphPad Software Inc.). To construct the concentration-dependent potentiation of channel activities by compound, the current amplitudes at −90 mV in response to various concentrations of the compound were normalized to that obtained at a maximal concentration of compound. The normalized currents were plotted as a function of the concentrations of the compound. EC50 values and Hill coefficients were determined by fitting the data points to a standard concentration-response curve (Y=100/(1+(X/EC50)^−Hill)). […]
# human KCa2.1 channel = biological target: T2, human KCa2.1 channel (Homo sapiens, UniProt P0DP23+Q92952); assay: Inside-out patch-clamp on KCa2.1 channels expressed in HEK293 cells; type: cell-based; settings: for response of KCa2.1 channels: inside-out patch; for Emax: normalized to 10 μM Ca2+
# T2 construct: expressed in transfected cells; host or cells: HEK293
# Protocol: The two newly synthesized compounds, 2o and 2q, were tested to determine whether they retained their subtype-selectivity. Neither 2o (FIG. 5A) nor 2q (FIG. 5B) elicited significant responses from the human KCa2.1 channel expressed in HEK293 cells. When compared with the responses from KCa2.2a channels to these two compounds, the differences became even more apparent (FIG. 5C), with the Emax values on KCa2.2a channels at ˜90%, whereas the Emax values on KCa2.1 channels were at ˜0% (FIG. 5D).
# as §1, with “The Ca^2+ concentrations were verified using a Ca^2+ calibration buffer kit (Thermo Fisher Scientific).” left out
# High resistance seals (>1 GΩ) were formed before inside-out patches were obtained. […] Currents were recorded by repetitive 1-s-voltage ramps from −100 mV to +100 mV from a holding potential of 0 mV. […]
# as §2
# Patch-clamp recordings were analyzed using Clampfit 10.5 (Molecular Devices LLC) and concentration-response curves were analyzed in GraphPad Prism 9.0.2 (GraphPad Software Inc.). […] EC50 values and Hill coefficients were determined by fitting the data points to a standard concentration-response curve (Y=100/(1+(X/EC50)^−Hill)). […]
EC50 (rat KCa2.2a),fold higher potency on KCa2.2a channels compared to CyPPA (rat KCa2.2a),response of KCa2.1 channels (human KCa2.1 channel),Emax (human KCa2.1 channel),SMILES,KCa2.2a/KCa2.3 subtype selectivity (rat KCa2.2a)
0.64 ± 0.051 µM,~10 fold,Lack of response,~0%,"Cc1cc(Nc2cc(Cl)ccc2F)nc(-n2nc(C)cc2C)n1 [Compound 2q, N-(5-Chloro-2-fluorophenyl)-2-(3,5-dimethyl-1H-pyrazol-1-yl)-6-methylpyrimidin-4-amine]",retained the KCa2.2a/KCa2.3 subtype selectivity
0.99 ± 0.079 µM,~7 fold,Lack of response,~0%,"Cc1cc(Nc2ccc(F)c(Cl)c2)nc(-n2nc(C)cc2C)n1 [Compound 2o, N-(3-Chloro-4-fluorophenyl)-2-(3,5-dimethyl-1H-pyrazol-1-yl)-6-methyl-pyrimidin-4-amine]",retained the KCa2.2a/KCa2.3 subtype selectivity
